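96-well plates; 48 h exposure; 5 concentrations. Endpoints by linear interpolation between flanking doses. Not reached: highest tested concentration assigned. TGI denotes the concentration required for complete inhibition of growth.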
Assays:
Experiment in all cases: inhibition of tumour cell growth, NCI panel, 48 h
HL-60(TB) leukemia = system: HL-60(TB) leukemia
NCI-H460 lung = system: NCI-H460 lung
T-47D breast = system: T-47D breast
IGROV1 ovarian = system: IGROV1 ovarian
UACC-62 melanoma = system: UACC-62 melanoma
OVCAR-4 ovarian = system: OVCAR-4 ovarian
HCC-2998 colon = system: HCC-2998 colon
PC-3 prostate = system: PC-3 prostate
K-562 leukemia = system: K-562 leukemia
SK-OV-3 ovarian = system: SK-OV-3 ovarian
LOX IMVI melanoma = system: LOX IMVI melanoma
RXF 393 renal = system: RXF 393 renal
SK-MEL-2 melanoma = system: SK-MEL-2 melanoma
A549 NSCLC = system: A549 NSCLC
ACHN renal = system: ACHN renal
HS 578T breast = system: HS 578T breast
RPMI-8226 leukemia = system: RPMI-8226 leukemia
NCI-H23 lung = system: NCI-H23 lung
COLO 205 colon = system: COLO 205 colon
MALME-3M melanoma = system: MALME-3M melanoma
MDA-MB-231 breast = system: MDA-MB-231 breast
KM12 colon = system: KM12 colon
SW-620 colon = system: SW-620 colon
BT-549 breast = system: BT-549 breast
786-0 renal = system: 786-0 renal
U251 CNS = system: U251 CNS
UACC-257 melanoma = system: UACC-257 melanoma
DU-145 prostate = system: DU-145 prostate
SNB-19 CNS = system: SNB-19 CNS
NCI/ADR-RES ovarian = system: NCI/ADR-RES ovarian
HT29 colon = system: HT29 colon
SK-MEL-28 melanoma = system: SK-MEL-28 melanoma
SK-MEL-5 melanoma = system: SK-MEL-5 melanoma
SN12C renal = system: SN12C renal
HCT-116 colon = system: HCT-116 colon
EKVX NSCLC = system: EKVX NSCLC
UO-31 renal = system: UO-31 renal
SF-268 CNS = system: SF-268 CNS
OVCAR-5 ovarian = system: OVCAR-5 ovarian
CCRF-CEM leukemia = system: CCRF-CEM leukemia
HOP-62 NSCLC = system: HOP-62 NSCLC
HCT-15 colon = system: HCT-15 colon
A498 renal = system: A498 renal
MOLT-4 leukemia = system: MOLT-4 leukemia
OVCAR-8 ovarian = system: OVCAR-8 ovarian
SF-539 CNS = system: SF-539 CNS
SF-295 CNS = system: SF-295 CNS
OVCAR-3 ovarian = system: OVCAR-3 ovarian
NCI-H522 lung = system: NCI-H522 lung
MCF7 breast = system: MCF7 breast
MDA-MB-435 = system: MDA-MB-435
TK-10 renal = system: TK-10 renal
M14 melanoma = system: M14 melanoma
SNB-75 CNS = system: SNB-75 CNS
CAKI-1 renal = system: CAKI-1 renal
NCI-H226 lung = system: NCI-H226 lung
MDA-N = system: MDA-N
HOP-92 NSCLC = system: HOP-92 NSCLC
SR leukemia = system: SR leukemia
LXFL 529 NSCLC = system: LXFL 529 NSCLC
M19-MEL melanoma = system: M19-MEL melanoma
DLD-1 colon = system: DLD-1 colon

Measured: TGI

C[N+]1(CCC(=O)c2ccccc2)CCC2CCC(C2)C1 (stereo unspecified)
not listed: LXFL 529 NSCLC | M19-MEL melanoma | DLD-1 colon
> 100 µM: all other assays above

CC(=O)Nc1ccc(C(=O)NN2C(=O)C(Cl)C2c2cccc([N+](=O)[O-])c2)cc1 (stereo unspecified)
not listed: T-47D breast | OVCAR-4 ovarian | PC-3 prostate | LOX IMVI melanoma | RXF 393 renal | HS 578T breast | MDA-MB-231 breast | BT-549 breast | 786-0 renal | DU-145 prostate | NCI/ADR-RES ovarian | SN12C renal | EKVX NSCLC | HCT-15 colon | A498 renal | MCF7 breast | MDA-MB-435 | M14 melanoma | CAKI-1 renal | MDA-N
> 100 µM: all other assays above

— PubChem BioAssay (NCI)
